Reference: article PMC10831276, “A viral insulin-like peptide inhibits IGF-1 receptor phosphorylation and regulates IGF1R gene expression” (Molecular Metabolism, 2024)
Bridge positions count the residues as written; N and C are the ends. Ends that are not written are not given here. I, II: the chains in the order shown.

Columns and labels:
IGF1R gene expression = IGF1R gene expression (RT-qPCR) in R+ cells after repeated stimulation with synthetic ligand; assay type: cell-based, human; conditions: 100 nM ligand every 3 h over 24 h, normalised to β-actin, compared to basal, n = 3
Protocol: To assess the potential impact of external VILP exposure on IGF1R gene expression, we employed R^+ cells, seeding 30 × 10^4 cells per well. Following a 24-hour incubation period, cells were washed twice with PBS and were subsequently serum-starved for 4 h before sequential stimulation with various ligands (scMFRV-VILP, dcMFRV-VILP, and IGF-1). The cells were stimulated with 100 nM of each ligand every 3 h over a 24-hour period. Post the final stimulation, the cells were snap-frozen and stored at −80 °C.
Subsequently, the lysates were transferred to microtubes and chloroform in ratio 5:1 (Tri Reagent: chloroform) was added. The mixture was vortexed for 15s, incubated at RT for 5 min and centrifuged for 15 min at 12000g, 4 °C. The upper aqueus phase was transferred to new tubes, 100 % ethanol was added to give a 1:1 volumetric ratio and subsequently the Direct-zol RNA Miniprep Kit (Zymo Research) was used according to the manufacturer's instructions. cDNA synthesis was performed using Maxima™ H Minus cDNA Syntheis Master Mix (ThermoFisher Scientific) according to manufacturer's instructions. The qPCR was performed using Power SYBR® Green PCR Master Mix (Applied Biosystems) according to manufacturer's instructions on QuantStudio 3 (Applied Biosystems). Statistical analysis was performed using ordinary one-way ANOVA followed by Tukey's multiple comparison test.

R+ cells = test: BrdU proliferation assay of transfected R+ cells; assay type: cell-based, mouse; conditions: 10 nM IGF-1 for 24 h; BrdU for last 6 h
Protocol: R^+ cells (described in 2.4) were seeded into 96-well plates so that they reached ∼50 % confluency after overnight incubation. […] Three hours post transfection, Opti-MEM medium was exchanged for regular culture medium. 24 h post transfection, cells were washed once with PBS and starved in serum free culture medium. After 24 h of starvation, cells were stimulated with IGF-1 (diluted in serum free medium) to reach final concentration of 10 nM IGF-1 per well for another 24 h period (serum free medium only was added to the non-stimulated wells). To determine the rate of proliferation in each well, BrdU Cell Proliferation Assay (Sigma–Aldrich, #QIA58) was used. Manufacturer's instructions were followed, with the BrdU probe being added for the last 6 h of the 24 h stimulation with IGF-1. Absorbance at dual wavelengths of 450–540 nm was measured using a spectrophotometric plate reader. The experiment was repeated at least three times and for each biological replicate, results were expressed as relative change compared to non-stimulated cells transfected with empty vector. Statistical analysis was performed using paired two-tailed Student's t-test.

human IGF1R [1] = biological target: T1, human IGF1R (Homo sapiens, UniProt P08069); test: cell-based; set-up: expressed in transfected cells; host or cells: HEK293 cells overexpressing human IGF-1R
Protocol: (§1) Insulin or IGF-1 receptor phosphorylation was measured as described in [13]. Briefly, HEK293 cells overexpressing human IR-A, IR-B, or IGF-1R were plated in 96-well tissue culture plates and cultured for 16–20 h at 37 °C, 5 % CO2, and 90 % humidity. […] For antagonism studies, test peptides were pre-mixed with 10 nM IGF-1. After 15 min incubation at 37 °C in humidified atmosphere with 5 % CO2, the cells were fixed with 5 % paraformaldehyde for 20 min at room temperature, washed twice with PBS (pH 7.4) and blocked with 2 % BSA in PBS for 1 h. The plate was washed three times, filled with anti-phospho-IR/IGF1R (Tyr1158) antibody (Millipore) and incubated for 3 h at room temperature, after which the plate was washed four times and filled with goat anti-rabbit secondary antibody (#A16110, ThermoFisher). Following 30 min incubation and another four washes, 0.1 mL of TMB One Solution substrate (#00-2023; Invitrogen) was added to each well. Color development was stopped 10 min later by adding 0.05 mL 1 M HCl.
Target sequence in this assay (P08069 741-1367): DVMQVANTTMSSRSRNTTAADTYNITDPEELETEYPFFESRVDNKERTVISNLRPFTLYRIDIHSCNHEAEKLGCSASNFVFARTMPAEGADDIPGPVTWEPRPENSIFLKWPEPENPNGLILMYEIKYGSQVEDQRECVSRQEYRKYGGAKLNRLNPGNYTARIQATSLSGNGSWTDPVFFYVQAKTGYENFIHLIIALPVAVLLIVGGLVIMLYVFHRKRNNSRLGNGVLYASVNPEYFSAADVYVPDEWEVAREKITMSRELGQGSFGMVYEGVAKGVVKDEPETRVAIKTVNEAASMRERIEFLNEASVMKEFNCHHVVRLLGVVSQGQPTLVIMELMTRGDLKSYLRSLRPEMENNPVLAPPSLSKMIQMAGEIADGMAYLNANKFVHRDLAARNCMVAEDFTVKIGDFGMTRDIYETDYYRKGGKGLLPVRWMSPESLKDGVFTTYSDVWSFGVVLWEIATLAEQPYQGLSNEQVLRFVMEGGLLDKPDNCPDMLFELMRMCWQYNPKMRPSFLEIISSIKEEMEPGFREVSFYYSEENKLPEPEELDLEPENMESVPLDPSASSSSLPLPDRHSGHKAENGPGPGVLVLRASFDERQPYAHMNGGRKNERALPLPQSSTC
Target sequence in this assay (P08069 31-736): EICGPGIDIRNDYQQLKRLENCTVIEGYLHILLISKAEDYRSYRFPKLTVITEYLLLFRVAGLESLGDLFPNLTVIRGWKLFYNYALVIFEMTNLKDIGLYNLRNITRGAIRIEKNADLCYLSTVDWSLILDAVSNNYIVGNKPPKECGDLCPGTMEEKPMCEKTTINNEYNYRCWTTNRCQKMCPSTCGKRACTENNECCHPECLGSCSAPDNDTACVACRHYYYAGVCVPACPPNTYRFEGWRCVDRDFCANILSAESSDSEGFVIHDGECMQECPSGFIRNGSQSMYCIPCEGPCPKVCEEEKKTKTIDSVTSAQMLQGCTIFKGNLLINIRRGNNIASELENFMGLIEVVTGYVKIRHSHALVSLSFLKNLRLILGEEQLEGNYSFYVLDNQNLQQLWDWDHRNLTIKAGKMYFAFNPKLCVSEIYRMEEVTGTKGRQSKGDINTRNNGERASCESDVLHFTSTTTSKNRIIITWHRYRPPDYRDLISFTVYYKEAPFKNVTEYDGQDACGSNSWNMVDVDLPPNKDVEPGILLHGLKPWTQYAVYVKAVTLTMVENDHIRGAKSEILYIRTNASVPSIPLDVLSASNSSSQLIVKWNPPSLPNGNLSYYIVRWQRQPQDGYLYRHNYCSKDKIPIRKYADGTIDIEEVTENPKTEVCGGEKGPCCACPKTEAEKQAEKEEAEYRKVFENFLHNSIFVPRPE

human IGF1R [2] = biological target: T1, human IGF1R; test: Whole-cell binding competition assay with 125I-IGF-1 on R+ fibroblasts; set-up: expressed in transfected cells; host or cells: murine embryonic fibroblasts from IGF1R knockout mice, stably transfected with IGF1R (R+ cells); conditions: competition with 125I-IGF-1, R+ cells; mean ± S.D. (n), n ≥ 3; measurement series #; SD
Protocol: (§2) For receptor binding studies, human IM-9 lymphoblasts, that express IR-A exclusively, and R^−/IR-B and R^+ murine embryonic fibroblasts were used for a whole-cell receptor-binding assay. Receptor binding assays on IR-A were perfomed accoding to Morcavallo et al. [24]and binding assays on IR-B and IGF1R were performed according to Kosinova et al.. […] Human ^125I-insulin was prepared as described by Asai et al. and human ^125I-IGF-1 was prepared as described in Kertisova et al..
Target sequence in this assay (P08069 31-736): as above
Target sequence in this assay (P08069 741-1367): as the sequence (P08069 741-1367) above

human IR-A [3] = biological target: T2, human IR-A (Homo sapiens, UniProt P06213); test: cell-based; set-up: human IM-9 lymphoblasts, that express IR-A exclusively
T2 sequence (P06213 763-1382): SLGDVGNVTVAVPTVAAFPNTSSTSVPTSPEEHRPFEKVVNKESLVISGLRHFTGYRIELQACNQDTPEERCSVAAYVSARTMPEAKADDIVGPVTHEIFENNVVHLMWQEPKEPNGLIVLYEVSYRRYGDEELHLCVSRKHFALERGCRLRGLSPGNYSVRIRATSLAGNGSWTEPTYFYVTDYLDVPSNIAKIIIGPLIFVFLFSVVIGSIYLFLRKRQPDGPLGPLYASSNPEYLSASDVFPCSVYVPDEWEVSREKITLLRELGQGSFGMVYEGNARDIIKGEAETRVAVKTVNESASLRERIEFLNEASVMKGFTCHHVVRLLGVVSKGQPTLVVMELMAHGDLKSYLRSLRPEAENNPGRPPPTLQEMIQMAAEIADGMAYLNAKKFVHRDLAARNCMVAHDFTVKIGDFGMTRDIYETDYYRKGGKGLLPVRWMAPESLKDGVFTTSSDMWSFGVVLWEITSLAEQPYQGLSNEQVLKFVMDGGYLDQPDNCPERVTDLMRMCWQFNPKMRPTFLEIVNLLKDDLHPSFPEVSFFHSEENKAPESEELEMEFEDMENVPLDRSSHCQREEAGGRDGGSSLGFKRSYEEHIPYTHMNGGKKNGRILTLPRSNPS
T2 sequence (P06213 other isoform, or with tags, fused parts or gaps): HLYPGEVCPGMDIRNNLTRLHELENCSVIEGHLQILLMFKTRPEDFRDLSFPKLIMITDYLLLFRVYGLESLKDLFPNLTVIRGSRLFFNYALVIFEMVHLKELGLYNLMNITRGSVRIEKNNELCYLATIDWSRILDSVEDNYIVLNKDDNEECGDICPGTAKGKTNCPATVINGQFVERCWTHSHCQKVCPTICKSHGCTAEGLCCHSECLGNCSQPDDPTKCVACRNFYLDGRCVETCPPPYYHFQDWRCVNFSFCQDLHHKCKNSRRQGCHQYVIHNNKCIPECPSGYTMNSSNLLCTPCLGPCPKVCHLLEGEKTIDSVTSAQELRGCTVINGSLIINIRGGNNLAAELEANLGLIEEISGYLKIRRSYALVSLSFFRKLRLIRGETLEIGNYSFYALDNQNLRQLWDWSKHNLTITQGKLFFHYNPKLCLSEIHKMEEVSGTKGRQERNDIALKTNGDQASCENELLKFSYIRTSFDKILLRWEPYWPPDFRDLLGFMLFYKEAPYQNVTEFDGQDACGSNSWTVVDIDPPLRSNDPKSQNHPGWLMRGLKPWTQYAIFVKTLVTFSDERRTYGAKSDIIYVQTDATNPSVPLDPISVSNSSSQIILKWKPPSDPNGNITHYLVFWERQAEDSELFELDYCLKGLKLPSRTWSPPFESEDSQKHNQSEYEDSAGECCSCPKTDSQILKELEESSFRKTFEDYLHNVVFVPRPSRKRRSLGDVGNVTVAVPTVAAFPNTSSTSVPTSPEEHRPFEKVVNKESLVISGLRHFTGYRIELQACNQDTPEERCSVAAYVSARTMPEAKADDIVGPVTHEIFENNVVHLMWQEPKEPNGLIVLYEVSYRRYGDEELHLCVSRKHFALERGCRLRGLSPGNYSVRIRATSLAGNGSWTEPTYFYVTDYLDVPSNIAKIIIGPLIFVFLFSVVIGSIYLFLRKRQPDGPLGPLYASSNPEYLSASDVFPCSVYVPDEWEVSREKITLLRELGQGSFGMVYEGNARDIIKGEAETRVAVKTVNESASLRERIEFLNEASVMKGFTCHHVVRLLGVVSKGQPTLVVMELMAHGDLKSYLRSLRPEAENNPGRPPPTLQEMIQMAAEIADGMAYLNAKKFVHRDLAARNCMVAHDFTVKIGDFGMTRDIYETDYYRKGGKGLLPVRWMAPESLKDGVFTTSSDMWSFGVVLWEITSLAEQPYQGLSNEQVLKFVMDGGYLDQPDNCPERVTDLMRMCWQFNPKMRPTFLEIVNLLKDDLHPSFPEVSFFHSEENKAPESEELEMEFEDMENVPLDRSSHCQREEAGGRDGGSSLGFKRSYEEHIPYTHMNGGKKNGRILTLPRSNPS
Protocol: as §1

human IR-A [4] = biological target: T2, human IR-A; test: Whole-cell binding competition assay with 125I-insulin on IM-9 lymphoblasts; set-up: human IM-9 lymphoblasts, that express IR-A exclusively; host or cells: human IM-9 lymphoblasts (whole cells)
Protocol: as §2

human IR-B = biological target: T3, human IR-B (Homo sapiens, UniProt P06213); test: Whole-cell binding competition assay with 125I-insulin on R-/IR-B fibroblasts; conditions: competition with 125I-insulin, R-/IR-B cells; mean ± S.D. (n), n ≥ 3; measurement series #; SD
T3 construct: expressed in transfected cells; host or cells: murine embryonic fibroblasts from IGF1R knockout mice, stably transfected with IR-B (R-/IR-B cells)
T3 sequence (P06213 28-758 limits assumed): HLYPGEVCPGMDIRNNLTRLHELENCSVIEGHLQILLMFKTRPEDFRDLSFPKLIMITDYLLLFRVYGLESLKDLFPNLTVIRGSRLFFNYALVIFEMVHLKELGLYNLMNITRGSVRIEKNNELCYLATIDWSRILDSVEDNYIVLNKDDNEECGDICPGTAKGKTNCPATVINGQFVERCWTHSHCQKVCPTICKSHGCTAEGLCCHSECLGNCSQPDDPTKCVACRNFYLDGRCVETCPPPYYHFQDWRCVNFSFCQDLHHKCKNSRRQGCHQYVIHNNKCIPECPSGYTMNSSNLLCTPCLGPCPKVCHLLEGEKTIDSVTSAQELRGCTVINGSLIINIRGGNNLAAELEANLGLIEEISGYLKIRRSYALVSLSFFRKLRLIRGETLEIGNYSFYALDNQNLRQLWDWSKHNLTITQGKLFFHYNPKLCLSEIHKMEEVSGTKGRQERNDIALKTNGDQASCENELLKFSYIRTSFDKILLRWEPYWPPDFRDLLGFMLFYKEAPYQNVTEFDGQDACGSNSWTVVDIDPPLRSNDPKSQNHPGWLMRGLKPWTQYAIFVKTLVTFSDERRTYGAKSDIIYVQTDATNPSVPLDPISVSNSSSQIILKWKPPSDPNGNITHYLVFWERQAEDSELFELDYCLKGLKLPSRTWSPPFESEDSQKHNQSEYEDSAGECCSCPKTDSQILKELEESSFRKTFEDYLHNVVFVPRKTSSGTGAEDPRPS
T3 sequence (P06213 763-1382 limits assumed): as the sequence (P06213 763-1382) above
Protocol: as §2

C57BL/6 J mice = test: Insulin tolerance test; assay type: in vivo, mouse
Protocol: All animal studies presented in this study complied with the regulations and ethics guidelines of the NIH and were approved by the Boston College Institutional Animal Care and Use Committee. Insulin tolerance testing was performed on 12 to 17-week-old male C57BL/6 J mice (Jackson Laboratory). Mice were grouped according to their weight before experiment. After 6-hour starvation, mice were injected i.p. with insulin (Humulin, 6 nmol/kg, corresponds to 1.0 U/kg, 1x) (Eli Lilly), scMFRV-VILP (6 nmol/kg, 1x and 60 nmol/kg, 10x), dcMFRV-VILP (60 nmol/kg, 10x), dcLCDV-Sa-VILP (0.3 μmol/kg, 50x), and saline as a control (n = 4–11 per condition). Tail-vein blood glucose was measured until 3 h post-injection using an Infinity glucometer (US Diagnostic Inc.). Statistical analysis was done using Mixed effects analysis - Dunnett's multiple comparisons test.

IR-B = test: Insulin/IGF signaling via IR-B in R-/IR-B cells (western blot); assay type: cell-based, human; conditions: 0.1-500 nM, 30 min
Protocol: For receptor phosphorylation and downstream signaling experiments, R^−/IR-A, R^−/IR-B and R^+ cells (described in 2.4) were used to explore signaling properties of ligands via specific receptors. Cells were seeded into 24-well plates (10^5 cells per well) in 300 μl of culture medium (described above) and grown overnight. Afterwards, cells were washed twice with PBS and starved in serum-free culture medium for 4 h. After the starvation, cells were washed with pure DMEM medium and incubated with ligand diluted in pure DMEM medium (0, 0.1, 1, 10, 100, 250 and 500 nM) in 37 °C for 30 min. For co-incubation of a VILP with 10 nM insulin/IGF-1, increasing concentrations of the VILP were pre-mixed with insulin or IGF-1 prior stimulation of cells. The reaction was terminated by washing the cells with ice-cold PBS (HyClone) followed by snap freezing in liquid nitrogene. […] Protein concentration in each sample was evaluated using BCA Assay (Thermo Fisher Scientific). Samples were further diluted using sample buffer for SDS-PAGE (final concentration 62.5 mM Tris, 2 % SDS (w/v), 10 % glycerol (v/v). 0.01 % bromphenol blue (w/v), 0.1 M DTT (w/v), pH 6.8 (HCl)) and routinely analyzed using SDS-PAGE and immunoblotting. […] Western blots were quantified using Image Lab 6.0.1 (Bio-Rad). […]

Substance: Human IGF-1: human insulin like growth factor-1, supplied by Merck [reference compound]
- decrease of IGF-1R gene expression (IGF1R gene expression): neither dcMFRV-VILP nor IGF-1 demonstrated a similar effect
- increase in cell proliferation in cells transfected with empty vector (R+ cells): 2.2 fold

Substance: I: ILAQTLCGSELVDALELVCGEYGGIYRPPK / II: KIVDVCCTTKGCNYMDLKQYCN (disulfide I:7-II:7, I:19-II:21, II:6-II:12) [dcLCDV-Sa]
- EC50 (human IGF1R [1]): 282 nM
- Kd (human IGF1R [2]): 639 ± 453 nM
- EC50 (human IR-A [3]): 198 nM
- Kd (human IR-A [4]; competition with 125I-insulin, IM-9 cells, mean ± S.D. (n), n ≥ 3 binding curves each in duplicate, measurement series #, SD): 487 ± 287 nM
- Kd (human IR-B): 994 ± 55 nM

Substance: Human insulin: human insulin, supplied by Merck; Humulin (Eli Lilly) in the insulin tolerance test [reference compound]
- maximum decrease in blood glucose levels (C57BL/6 J mice; 6 nmol/kg (1x) i.p., male C57BL/6 J mice, 6 h starved): ~60%

Substance: I: VLTDKLCGKDLVDALLLVCGEKGVYSPKMG / II: GIADVCCTSANGCDLNFLEKFCKT (disulfide I:7-II:7, I:19-II:22, II:6-II:13) [dcMFRV]
- decrease of IGF-1R gene expression (IGF1R gene expression): neither dcMFRV-VILP nor IGF-1 demonstrated a similar effect
- glucose-lowering effect (C57BL/6 J mice; 60 nmol/kg (10x) i.p., dcMFRV-VILP): comparable effect to scMFRV-VILP (1x)
- affinity on IR-A, fold stronger than IGF-1 (human IR-A [4]; ratio of Kd values): 1.5 fold
- fold difference in IR-A affinity, dcMFRV-VILP higher than the sc form (human IR-A [4]; ratio of Kd values): about 3 fold
- maximum response of IR-B autophosphorylation compared to 10 nM insulin (IR-B): comparable maximum response
